Laboratory results published in patent US8058242B2, “Chimeric proteins with natriuretic activity” (The University of Queensland, priority 2004, dated 2011).
Positions of bridges follow the written chain, without caps; N, C: chain ends. Non-standard residues stand in square brackets, D forms with d. Residues, ends and D or L forms follow the SMILES beside them. Nle = CCCC[C@H](N)C(=O)O

Legend:
[1] = target: T1, Natriuretic Peptide Receptor-A (NPR-A) signaling in MDCK cells (Canis lupus familiaris, UniProt A0A8I3MHU3); format: cell-based, canine; settings: stimulation of cGMP accumulation in MDCK cells; for EC50: read-out: EC50 (M) ± Standard Error
T1 sequence (A0A8I3MHU3 32-1060): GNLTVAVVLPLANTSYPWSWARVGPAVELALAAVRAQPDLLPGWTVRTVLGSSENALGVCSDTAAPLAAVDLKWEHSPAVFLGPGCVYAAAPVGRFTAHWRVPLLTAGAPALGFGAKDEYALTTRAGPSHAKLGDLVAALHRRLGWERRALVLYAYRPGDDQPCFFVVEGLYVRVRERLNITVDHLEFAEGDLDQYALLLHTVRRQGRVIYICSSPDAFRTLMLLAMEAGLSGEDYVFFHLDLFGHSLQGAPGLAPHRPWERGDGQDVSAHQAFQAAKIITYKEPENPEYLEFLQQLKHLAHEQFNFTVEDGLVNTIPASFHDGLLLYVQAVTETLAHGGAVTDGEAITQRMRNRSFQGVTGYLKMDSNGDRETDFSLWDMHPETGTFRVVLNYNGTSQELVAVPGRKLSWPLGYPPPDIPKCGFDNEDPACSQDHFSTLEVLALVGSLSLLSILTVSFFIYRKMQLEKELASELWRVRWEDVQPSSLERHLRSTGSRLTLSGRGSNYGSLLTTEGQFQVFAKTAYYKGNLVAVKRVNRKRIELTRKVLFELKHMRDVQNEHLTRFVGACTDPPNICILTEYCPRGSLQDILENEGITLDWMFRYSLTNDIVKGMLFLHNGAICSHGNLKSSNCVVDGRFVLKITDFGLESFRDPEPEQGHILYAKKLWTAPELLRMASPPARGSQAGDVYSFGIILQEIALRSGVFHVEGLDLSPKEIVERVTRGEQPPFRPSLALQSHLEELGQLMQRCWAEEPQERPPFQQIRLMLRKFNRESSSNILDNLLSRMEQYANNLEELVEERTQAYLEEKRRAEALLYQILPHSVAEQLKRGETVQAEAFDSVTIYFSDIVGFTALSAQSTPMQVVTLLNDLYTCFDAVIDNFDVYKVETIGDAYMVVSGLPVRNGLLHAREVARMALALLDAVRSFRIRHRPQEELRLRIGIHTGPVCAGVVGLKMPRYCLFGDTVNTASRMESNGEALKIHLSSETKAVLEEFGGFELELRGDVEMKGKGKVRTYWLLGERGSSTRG

conscious rabbits = assay: Blood pressure and heart rate in conscious rabbits, intravenous infusion dose-response (Example 8)
[2] = after 1 hour recovery period, Table 10A

Row | Compound | −Log10 EC50 (pEC50) ± Standard Error [1] | EC50 [1] [M] | also measured
1 | CC[C@H](C)[C@@H]1NC(=O)[C@H](CCCNC(=N)N)NC(=O)[C@H](CC(=O)O)NC(=O)[C@H]([C@@H](C)CC)NC(=O)[C@H](CCCCN)NC(=O)[C@H](Cc2c[nH]cn2)NC(=O)CNC(=O)[C@H](Cc2ccccc2)NC(=O)[C@@H](NC(=O)CNC(=O)[C@H](CC(N)=O)NC(=O)[C@@H]2CCCN2C(=O)[C@@H]2CCCN2C(=O)CNC(=O)[C@H](CCCCN)NC(=O)[C@H](CCCCN)NC(=O)[C@@H]2CCCN2C(=O)[C@@H]2CCCN2C(=O)[C@H](CCCCN)NC(=O)[C@H](CC(N)=O)NC(=O)[C@H](CC(=O)O)NC(=O)CN)CSSC[C@@H](C(=O)N[C@@H](CC(N)=O)C(=O)N[C@@H](CCCCN)C(=O)N[C@H](C(=O)N[C@@H](CC(=O)O)C(=O)N[C@@H](CC(=O)O)C(=O)N[C@@H](CC(N)=O)C(=O)N[C@@H](CCCCN)C(=O)NCC(=O)O)C(C)C)NC(=O)CNC(=O)[C@H](CC(C)C)NC(=O)CNC(=O)[C@H](CO)NC(=O)[C@H](Cc2c[nH]cn2)NC(=O)[C@H](CO)NC(=O)CNC1=O [Lebetin] (H-GDNKPPKKGPPNGCFGHKIDRIGSHSGLGCNKVDDNKG-OH; disulfide 14-30; N-terminus and C-terminus assumed) | 7.637 ± 0.1619 | 2.67e-08 | 
2 | CCCC[C@H](NC(=O)[C@@H](NC(=O)[C@H](CCCNC(=N)N)NC(=O)[C@H](CC(N)=O)NC(=O)[C@@H]1CSSC[C@H](NC(=O)CNC(=O)[C@H](CC(N)=O)NC(=O)CNC(=O)[C@@H](NC(=O)[C@H](CCCCN)NC(=O)[C@H](CO)NC(=O)[C@H](CC(=O)O)NC(=O)[C@@H](N)CO)[C@@H](C)CC)C(=O)N[C@@H](Cc2ccccc2)C(=O)NCC(=O)N[C@@H](Cc2ccccc2)C(=O)N2CCC[C@H]2C(=O)N[C@@H](CC(C)C)C(=O)N[C@@H](CC(=O)O)C(=O)N[C@@H](CCCNC(=N)N)C(=O)N[C@@H]([C@@H](C)CC)C(=O)NCC(=O)N[C@@H](CO)C(=O)N[C@@H](C(C)C)C(=O)N[C@@H](CO)C(=O)NCC(=O)N[C@@H](CC(C)C)C(=O)NCC(=O)N1)[C@@H](C)CC)C(=O)N[C@@H](CCC(N)=O)C(=O)N[C@@H](CC(N)=O)C(=O)N1CCC[C@H]1C(=O)N1CCC[C@H]1C(=O)N[C@@H](CCCCN)C(=O)N[C@@H](CCCCN)C(=O)N[C@@H](Cc1ccccc1)C(=O)N[C@@H](CO)C(=O)NCC(=O)N[C@@H](CCC(=O)O)C(=O)O [Nle-TNPc] (H-SDSKIGNGCFGFPLDRIGSVSGLGCNRI[Nle]QNPPKKFSGE-OH; disulfide 9-25; N-terminus assumed) | 6.497 ± 0.2017 | 3.99e-07 | 
3 | CC[C@H](C)[C@@H]1NC(=O)[C@H](CCCNC(=N)N)NC(=O)[C@H](CC(=O)O)NC(=O)[C@H]([C@@H](C)CC)NC(=O)[C@H](CCCCN)NC(=O)[C@H](Cc2c[nH]cn2)NC(=O)CNC(=O)[C@H](Cc2ccccc2)NC(=O)[C@@H](NC(=O)CNC(=O)[C@H](CC(=O)O)NC(=O)[C@@H]2CCCN2C(=O)[C@H](C)NC(=O)[C@H](CCCCN)NC(=O)[C@H](CCCCN)NC(=O)[C@H](CCCCN)NC(=O)[C@@H]2CCCN2C(=O)[C@@H]2CCCN2C(=O)[C@H](CCC(=O)O)NC(=O)[C@H](CC(N)=O)NC(=O)[C@H](CCC(=O)O)NC(=O)CN)CSSC[C@@H](C(=O)N[C@@H](CC(N)=O)C(=O)N[C@@H](CCCCN)C(=O)N[C@@H](Cc2ccccc2)C(=O)N[C@@H](CCCCN)C(=O)N2CCC[C@H]2C(=O)NCC(=O)N[C@@H](Cc2c[nH]cn2)C(=O)O)NC(=O)CNC(=O)[C@H](CC(C)C)NC(=O)CNC(=O)[C@H](CO)NC(=O)[C@H](Cc2c[nH]cn2)NC(=O)[C@H](CO)NC(=O)CNC1=O [PNP, reference compound] (H-GENEPPKKKAPDGCFGHKIDRIGSHSGLGCNKFKPGH-OH; disulfide 14-30) | 6.660 ± 0.4500 | 3.47e-07 | 
4 | CC[C@H](C)[C@@H]1NC(=O)[C@H](CCCNC(=N)N)NC(=O)[C@H](CC(=O)O)NC(=O)[C@H](CC(C)C)NC(=O)[C@@H]2CCCN2C(=O)[C@H](Cc2ccccc2)NC(=O)CNC(=O)[C@H](Cc2ccccc2)NC(=O)[C@@H](NC(=O)CNC(=O)[C@H](C)NC(=O)[C@H](CO)NC(=O)[C@@H](NC(=O)[C@H](CCCCN)NC(=O)[C@H](CO)NC(=O)[C@H](CC(=O)O)NC(=O)[C@@H](N)CO)[C@@H](C)CC)CSSC[C@@H](C(=O)N[C@@H](CC(N)=O)C(=O)N[C@@H](CCCNC(=N)N)C(=O)N[C@H](C(=O)N[C@@H](CCSC)C(=O)N[C@@H](CCC(N)=O)C(=O)N[C@@H](CC(N)=O)C(=O)N2CCC[C@H]2C(=O)N2CCC[C@H]2C(=O)N[C@@H](CCCCN)C(=O)N[C@@H](CCCCN)C(=O)N[C@@H](Cc2ccccc2)C(=O)N[C@@H](CO)C(=O)NCC(=O)N[C@@H](CCC(=O)O)C(=O)O)[C@@H](C)CC)NC(=O)CNC(=O)[C@H](CC(C)C)NC(=O)CNC(=O)[C@H](CO)NC(=O)[C@H](C(C)C)NC(=O)[C@H](CO)NC(=O)CNC1=O [Peptide A7S6-TNPc] (H-SDSKISAGCFGFPLDRIGSVSGLGCNRIMQNPPKKFSGE-OH; disulfide 9-25; N-terminus assumed) | 6.897 ± 0.2652 | 1.69e-07 | 
5 | CC[C@H](C)[C@H](NC(=O)[C@H](CCCCN)NC(=O)[C@H](CO)NC(=O)[C@H](CC(=O)O)NC(=O)[C@@H](N)CO)C(=O)NCC(=O)N[C@@H](CC(N)=O)C(=O)NCC(=O)N[C@H]1CSSC[C@@H](C(=O)N[C@@H](CC(N)=O)C(=O)N[C@@H](CCCNC(=N)N)C(=O)N2CCC[C@H]2C(=O)N[C@@H](CCSC)C(=O)N[C@@H](CCC(N)=O)C(=O)N[C@@H](CC(N)=O)C(=O)N2CCC[C@H]2C(=O)N2CCC[C@H]2C(=O)N[C@@H](CCCCN)C(=O)N[C@@H](CCCCN)C(=O)N[C@@H](Cc2ccccc2)C(=O)N[C@@H](CO)C(=O)NCC(=O)N[C@@H](CCC(=O)O)C(=O)O)NC(=O)CNC(=O)[C@H](CC(C)C)NC(=O)CNC(=O)[C@H](CO)NC(=O)[C@H](C(C)C)NC(=O)[C@H](CO)NC(=O)CNC(=O)[C@H]([C@@H](C)CC)NC(=O)[C@H](CCCNC(=N)N)NC(=O)[C@H](CC(=O)O)NC(=O)[C@H](CC(C)C)NC(=O)[C@@H]2CCCN2C(=O)[C@H](Cc2ccccc2)NC(=O)CNC(=O)[C@H](Cc2ccccc2)NC1=O [Peptide I28P-TNPc] (H-SDSKIGNGCFGFPLDRIGSVSGLGCNRPMQNPPKKFSGE-OH; disulfide 9-25; N-terminus assumed) | 5.995 ± 0.2450 | 1.19e-06 | 
6 | CC[C@H](C)[C@@H]1NC(=O)[C@H](CCCNC(=N)N)NC(=O)[C@H](CC(=O)O)NC(=O)[C@H](CC(C)C)NC(=O)[C@@H]2CCCN2C(=O)[C@H](Cc2ccccc2)NC(=O)CNC(=O)[C@H](Cc2ccccc2)NC(=O)[C@@H](NC(=O)CNC(=O)[C@H](CCCCN)NC(=O)[C@H](CO)NC(=O)[C@@H](NC(=O)[C@H](CCCCN)NC(=O)[C@H](CO)NC(=O)[C@H](CC(=O)O)NC(=O)[C@@H](N)CO)[C@@H](C)CC)CSSC[C@@H](C(=O)N[C@@H](CC(N)=O)C(=O)N[C@@H](CCCNC(=N)N)C(=O)N[C@H](C(=O)N[C@@H](CCSC)C(=O)N[C@@H](CCC(N)=O)C(=O)N[C@@H](CC(N)=O)C(=O)N2CCC[C@H]2C(=O)N2CCC[C@H]2C(=O)N[C@@H](CCCCN)C(=O)N[C@@H](CCCCN)C(=O)N[C@@H](Cc2ccccc2)C(=O)N[C@@H](CO)C(=O)NCC(=O)N[C@@H](CCC(=O)O)C(=O)O)[C@@H](C)CC)NC(=O)CNC(=O)[C@H](CC(C)C)NC(=O)CNC(=O)[C@H](CO)NC(=O)[C@H](C(C)C)NC(=O)[C@H](CO)NC(=O)CNC1=O [Peptide K7S6-TNPc] (H-SDSKISKGCFGFPLDRIGSVSGLGCNRIMQNPPKKFSGE-OH; disulfide 9-25; N-terminus assumed) | 7.567 ± 0.4397 | 5.24e-08 | 
7 | SDSKIGNGCFGFPLDHIGSVSGLGCNRIMQNPPKKFSGE (A portion of a natriuretic peptide) [TNPc R16H] |  |  | Recovery (MAP) (conscious rabbits; [2]): 67.6 mm Hg; Recovery Delta SED (MAP) (conscious rabbits; [2]): 2.0 ± 3.9 mm Hg; reduction of MAP compared to vehicle, in words (conscious rabbits; highest dose): did significantly reduce MAP; MAP at final dose (conscious rabbits; highest dose, Table 10A): 65.6 mm Hg; Treatment Effect, change of mean blood pressure during the infusion (conscious rabbits; highest dose, Table 10A, groups 1, 2A and 3): −7.3 mm Hg
